In paper PMC11187260, “Unraveling the interconversion pharmacokinetics and oral bioavailability of the major ginger constituents: [6]-gingerol, [6]-shogaol, and zingerone after single-dose administration in rats” (Frontiers in Pharmacology, 2024):
Read-outs that look alike come from different tables or passages of the source.

Experiments:
Assay type in all cases: in vivo, Female Sprague Dawley rats
[1] = Safety evaluation: physical appearance and blood chemistry after single i.v. or p.o. dose; details: for ALP / ALT / AST / BUN / Creatinine: post-dose (24 h), mean ± SD n=6; for Physical appearance: post-dose
Method: (§1) This study is composed of two sections; the first section involves an investigation of the interconversion pharmacokinetics of the pure compounds, and the second focuses on tissue distribution. All rats were transferred to metabolic cages and fasted overnight for at least 10 h. The animals were then randomly divided into four groups (6 rats/group) to receive a single intravenous (i.v.) administration of either 6G, 6S, zingerone, or vehicle via the lateral tail vein at a dosage of 3 mg/kg. After a 7-week washout period, the rats received 30 mg/kg of the same test compounds through a single oral (p.o.) administration. Following each administration, blood samples (300 µL) were collected in heparinized tubes from the lateral tail vein (while rats were under anesthesia with isoflurane) at specified time points: 0.083, 0.25, 0.5, 1, 1.5, 2, 3, 4, 6, 8, and 24 h after administration. An additional 1 mL of blood sample was collected from each rat at pre-dose (0 h) and post-dose (24 h) for clinical laboratory testing and safety evaluation. All heparinized blood samples were initially centrifuged at 5,000 × g, 4 °C, for 10 min. Subsequently, the plasma was carefully transferred to a cryotube as an aliquot sample and then stored at −40 °C until analysis. Urine and feces were collected during the intervals of 0–24 h and 24–48 h post-dosing, and their weights and volumes were documented. All collected urine and feces samples were stored at −40 °C until analysis.
Plasma samples were collected at baseline (T0) and T24 h for the determination of blood chemistry, including levels of blood urea nitrogen (BUN), creatinine, aspartate transaminase (AST), alanine transaminase (ALT), and alkaline phosphatase (ALP). The analyses were conducted by the Exclusive Veterinary Professional Laboratory Center (Bangkok, Thailand). The creatinine level was determined using an enzymatic oxidase assay, while AST and ALT levels were determined using the procedure of the International Federation of Clinical Chemistry (IFCC) without pyridoxal phosphate activation.

[2] = Interconversion clearance between 6G and 6S after intravenous administration; details: female, Sprague-Dawley, rat, plasma, iv; single i.v. 3 mg/kg; read-out: CL20 (irreversible elimination clearance of 6S) (converted)
Method: The interconversion between 6G and 6S was determined using previously published methods ([Ebling and Jusko, 1986]; [Prueksaritanont et al., 2005]). The clearance of 6G biotransformed into 6S was calculated as CL12, while the reverse clearance (6S → 6G) was calculated as CL21. The irreversible elimination clearances of 6G and 6S were calculated as CL10 and CL20, respectively. The following equations were used in accordance with the notation provided in Supplementary Table S3. CL12=Dose^shogaol […] CL21=Dose^gingerol […] CL10=Dose^gingerol x AUCshogaolshogaol- Dose^shogaol […] CL20=Dose^shogaol […]- Dose^gingerol […]

[3] = Percent recovery in urine and feces after intravenous or oral administration; details: for dose excreted: female, Sprague Dawley, rat, % of administered dose
Method: as §1
Urine samples were centrifuged, and 50 µL of urine was extracted with 200 µL of 100% methanol. The mixture was vortexed for 10 min and subsequently centrifuged at 14,000 × g at 4 °C for 10 min. Feces and organs were weighed and homogenized with methanol (50:50% w/v). The supernatants of the extracted urine, feces, and organs were also filtered through a […] PVDF membrane (Chrome Tech, MN, USA) before analysis.
(§2) Investigation of glucuronide conjugations followed a previously published method with some modification ([Wang et al., 2017]; [Songvut et al., 2023]). A 50 μL aliquot of plasma, urine, or feces sample was incubated at 37 °C for a minimum of 30 min with 50 μL of β-glucuronidase (3,000 U/mL) in a sodium phosphate buffer (pH 6.8). For sample extraction, 150 μL of methanol containing 50 μg/L of IS was pipetted into the pre-incubated samples. Subsequently, the mixtures were vortexed for 10 min and then centrifuged at 14,000 × g at 4 °C for 10 min. The supernatants were filtered through a […] PVDF membrane (Chrome Tech, MN, United States) and then analyzed using the validated LC-MS/MS method.
(§3) Plasma concentration-time profiles were plotted using GraphPad Prism 9.3.0 (GraphPad Software, USA). The absolute oral bioavailability was calculated as follows: F = (AUC p.o./dose p.o.)/(AUC i.v./dose i.v.). The percentage recovery of each administered compound was calculated as the total amount of the drug found in urine or feces divided by the administered dose. The tissue-to-plasma concentration ratios (K p) were calculated by dividing the concentration in the tissue by the corresponding plasma concentration at the respective sampling time point.

[4] = Pharmacokinetics and oral bioavailability after single oral administration (30 mg/kg), plasma LC-MS/MS; details: for bioavailability / AUC(0-inf) / AUC(0-t) / Tmax: plasma, 30 mg/kg; for AUC(0-t): read-out: AUC(0-t); for Tmax: median [IQR]
Method: as §1
Plasma samples were processed through protein precipitation. In brief, 50 µL of plasma was mixed with 200 µL of methanol containing 50 ng/mL of IS (dihydrocapsaicin). The mixtures were vortexed and centrifuged at 14,000 × g at 4 °C for 10 min. The supernatant was filtered through a […] PVDF membrane (Chrome Tech, MN, USA) before analysis.
as §2
Quantitative analysis was conducted using liquid chromatography-tandem mass spectrometry (LC-MS/MS) with a Nexera X2 LCMS-8060NX instrument (Shimadzu, Japan). The instrument included a CBM-40lite system controller, CTO-40C column oven, SIL-40C XR autosampler, LC-40D XR solvent pump unit, FCV-DGU-403 degasser, and 20AH2 switching valve. The LC-MS/MS system was operated with a binary pump and equipped with a triple quadrupole mass spectrometer.
Pharmacokinetic parameters were assessed using PK Solutions software (version 2.0) with non-compartmental analysis. The AUC was calculated using the Linear-Log Trapezoidal Method. The maximum plasma concentration (Cmax) and time to reach maximum plasma concentration (Tmax) were taken directly from the graph.
as §3

[5] = female, Sprague-Dawley, rat, po, plasma analyte after [6]-gingerol p.o. 30 mg/kg, mean ± SD n=6
[6] = female, Sprague-Dawley, rat, po, plasma analyte after [6]-shogaol p.o. 30 mg/kg, mean ± SD n=6

With CCCCC/C=C/C(=O)CCc1ccc(O)c(OC)c1 [[6]-shogaol] as the compound, how does the ALP ([1]; i.v. 3 mg/kg) read?
The ALP was 49.50 ± 14.46 U/L.

What about the ALT ([1]; i.v. 3 mg/kg) of the same compound?
The ALT was 18.83 ± 3.92 U/L.

What about the AST ([1]; i.v. 3 mg/kg) of the same compound?
The AST was 59.50 ± 5.61 U/L.

And the BUN ([1]; i.v. 3 mg/kg)?
The BUN was 14.17 ± 1.72 mg/dL.

And the Creatinine ([1]; i.v. 3 mg/kg)?
Its Creatinine is 0.73 ± 0.02 mg/dL.

What about the ALP ([1]; p.o. 30 mg/kg) of the same compound?
The ALP was 39.17 ± 11.20 U/L.

And the ALT ([1]; p.o. 30 mg/kg)?
The ALT was 22.50 ± 5.89 U/L.

And the AST ([1]; p.o. 30 mg/kg)?
Its AST is 63.83 ± 11.77 U/L.

What about the BUN ([1]; p.o. 30 mg/kg) of the same compound?
The BUN was 14.00 ± 2.00 mg/dL.

And the Creatinine ([1]; p.o. 30 mg/kg)?
Its Creatinine is 0.71 ± 0.02 mg/dL.

What about the Physical appearance ([1]; i.v. 3 mg/kg) of the same compound?
Its Physical appearance is “Normal”.

And the Physical appearance ([1]; p.o. 30 mg/kg)?
Its Physical appearance is “Normal”.

And the Tolerability ([1]; single i.v. 3 mg/kg or p.o. 30 mg/kg)?
Its Tolerability is “exhibited tolerance”.

And the clearance [2]?
Its clearance is 11.3 mL/min/kg.

And the “parent compound recovered in urine” value ([3]; during 24–48 h)?
The value was “less than 1%”.

And the dose excreted ([3]; feces, iv, 3 mg/kg, intravenous administration 3 mg/kg of parent compound, read-out: % Recovery excretion, feces T 0–24 h)?
Its dose excreted is under 0.001%.

What about the dose excreted ([3]; feces, po, 30 mg/kg, oral administration 30 mg/kg of parent compound, read-out: % Recovery excretion, feces T 0–24 h) of the same compound?
Its dose excreted is 0.001 ± 0.001%.

What about the dose excreted ([3]; feces, po, 30 mg/kg, oral administration 30 mg/kg of parent compound, read-out: % Recovery excretion, feces T 24–48 h) of the same compound?
The dose excreted was 0.002 ± 0.002%.

And the dose excreted ([3]; urine, iv, 3 mg/kg, intravenous administration 3 mg/kg of parent compound, read-out: % Recovery excretion, urine T 0–24 h)?
Its dose excreted is 0.003 ± 0.002%.

And the dose excreted ([3]; urine, iv, 3 mg/kg, intravenous administration 3 mg/kg of parent compound, read-out: % Recovery excretion, urine T 24–48 h)?
Its dose excreted is under 0.001%.

And the dose excreted ([3]; urine, po, 30 mg/kg, oral administration 30 mg/kg of parent compound, read-out: % Recovery excretion, urine T 0–24 h)?
The dose excreted was 0.001 ± 0.001%.

And the dose excreted ([3]; urine, po, 30 mg/kg, oral administration 30 mg/kg of parent compound, read-out: % Recovery excretion, urine T 24–48 h)?
Its dose excreted is under 0.001%.

What about the “unchanged form in fecal excretion” value ([3]; within 48 h after intravenous or oral administration) of the same compound?
The value was under 0.1%.

What about the bioavailability ([4]; female, Sprague-Dawley, rat, po, p.o. 30 mg/kg vs i.v. 3 mg/kg of the pure compound, mean ± SD n=6, read-out: %Oral bioavailability) of the same compound?
The bioavailability was 0.15 ± 0.1%.

What about the bioavailability ([4]; female, Sprague-Dawley, rat, po, p.o. 30 mg/kg vs i.v. 3 mg/kg of the pure compound, range among rats, read-out: %Oral bioavailability (range)) of the same compound?
The bioavailability was 0.1 to 0.31%.

What about the bioavailability ([4]; female, Sprague-Dawley, rat, po, p.o. 30 mg/kg vs i.v. 3 mg/kg, pure compounds, read-out: absolute oral bioavailability (upper bound)) of the same compound?
Its bioavailability is under 2%.

What about the AUC(0-inf) [4, 5] of the same compound?
The AUC(0-inf) was 10.3 ± 4.14 ng·h/mL.

And the AUC(0-t) [4, 5]?
Its AUC(0-t) is 10.2 ± 4.01 ng·h/mL.

What about the Tmax ([4]; female, Sprague-Dawley, rat, po, plasma analyte after [6]-gingerol p.o. 30 mg/kg) of the same compound?
Its Tmax is 15 min.

And the AUC(0-inf) [4, 6]?
Its AUC(0-inf) is 66.9 ± 30.5 ng·h/mL.

What about the AUC(0-t) [4, 6] of the same compound?
The AUC(0-t) was 66.9 ± 30.5 ng·h/mL.

What about the Tmax ([4]; female, Sprague-Dawley, rat, po, plasma analyte after [6]-shogaol p.o. 30 mg/kg) of the same compound?
Its Tmax is 45 min.

What about the Cmax [4, 6] of the same compound?
Its Cmax is 51.8 ± 20.9 ng/mL.

What about the “presence of parent compound in plasma” value ([4]; following oral administration) of the same compound?
The value was “up to 4 h”.
